Test results: PMC5701133, “Structural Mechanism of the Oxygenase JMJD6 Recognition by the Extraterminal (ET) Domain of BRD4” (Scientific Reports, 2017)

How the values were obtained:
[1] = system: BRD4 and JMJD6 interaction; test: Co-immunoprecipitation with added nucleic acid: BRD4/JMJD6 association; assay type: binding; settings: for association of Flag-BRD4WT with JMJD6 on addition of nucleic acid (in words): double-transfected Flag-BRD4 and His-JMJD6 HEK293T lysate, 1 μM ssRNA, dsDNA or ssDNA; for BRD4/JMJD6 association, endogenous and single-transfected IP, on addition of nucleic acid (in words): endogenous and single-transfected HEK293T IP experiments
Protocol: Incubate at 4 °C overnight.

[2] = system: JMJD6; settings: biochemical study; ref [21]; cited from earlier work

Row | Substance | association of Flag-BRD4WT with JMJD6 on addition of nucleic acid (in words) [1] | BRD4/JMJD6 association, endogenous and single-transfected IP, on addition of nucleic acid (in words) [1] | interaction with JMJD6 (in words) [2]
1 | ssDNA: 5′-TTTCTAGATCAGGAGCTGTCGGAAGCTATCC-3′; 31 nt (DNA, backbone not given here) | no improvements on JMJD6 interaction with BRD4 | no additional effect | –
2 | ssRNA: 5′-AUACGAUGCUUUACGGUGCUAUUUUGU-3′; 27 nt (RNA, backbone not given here) | appears much stronger | no additional effect | can interact
